From ChEMBL document CHEMBL1201862, “PubChem BioAssay data set” (2004)
Active and inactive are the calls of the source. Non-standard residues stand in square brackets, D forms with d. Residues, ends and D or L forms follow the SMILES beside them. ξ: configuration not given here. ξLac(3-iPr) = CC(C)CC(O)C(=O)O; NMeV = CN[CH](C(=O)O)C(C)C; NMeA = CN[CH](C)C(=O)O; βAla = NCCC(=O)O

Experiments:
[1] = Shn3 3'UTR reporter inhibitors, dose response, cell-based, Clone20 osteoblasts, firefly luciferase, cherry-picked (AID 624132); assay type: functional;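 note: firefly luciferase luminescence from reporter carrying the Shn3 3'UTR in osteoblasts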
[2] = control 3'UTR Renilla luciferase suppression, dose response, counter-screen for Shn3 inhibitor project, cell-based, Clone20-Shn3RL, cherry-picked (AID 624133); assay type: functional
Cytochrome P450 3A4 = Cytochrome P450 3A4 (Homo sapiens, UniProt P08684); details: Potency;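 note: confirmatory qHTS run detecting inhibitors and substrates of CYP3A4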
Chain of Cytochrome P450 3A4 (P08684 whole entry): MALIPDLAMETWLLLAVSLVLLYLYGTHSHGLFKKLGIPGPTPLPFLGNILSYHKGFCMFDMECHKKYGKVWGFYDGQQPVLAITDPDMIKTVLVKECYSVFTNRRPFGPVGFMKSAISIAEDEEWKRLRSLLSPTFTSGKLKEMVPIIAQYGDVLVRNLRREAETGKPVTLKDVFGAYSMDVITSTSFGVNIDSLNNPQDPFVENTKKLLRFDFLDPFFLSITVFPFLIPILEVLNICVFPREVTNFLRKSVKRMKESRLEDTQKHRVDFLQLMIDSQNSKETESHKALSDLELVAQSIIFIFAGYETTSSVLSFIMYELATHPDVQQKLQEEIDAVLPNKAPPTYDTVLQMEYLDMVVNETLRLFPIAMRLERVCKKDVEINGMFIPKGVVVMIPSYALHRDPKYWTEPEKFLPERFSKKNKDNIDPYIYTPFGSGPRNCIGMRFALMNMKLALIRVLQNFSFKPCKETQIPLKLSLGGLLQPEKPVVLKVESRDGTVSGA

[3] = HepG2 cell cytotoxicity, dose response, cytotoxicity control for Shn3 inhibitor project, CellTiter-Glo, cherry-picked (AID 624134); assay type: functional, cell-based
[4] = target: 72 kDa type IV collagenase (Homo sapiens, UniProt P08253); assay: Dose Response validation of uHTS RPN11 inhibitor hits using a MMP-2 Fluorescence assay.; assay type: functional
Chain of 72 kDa type IV collagenase (P08253 whole entry): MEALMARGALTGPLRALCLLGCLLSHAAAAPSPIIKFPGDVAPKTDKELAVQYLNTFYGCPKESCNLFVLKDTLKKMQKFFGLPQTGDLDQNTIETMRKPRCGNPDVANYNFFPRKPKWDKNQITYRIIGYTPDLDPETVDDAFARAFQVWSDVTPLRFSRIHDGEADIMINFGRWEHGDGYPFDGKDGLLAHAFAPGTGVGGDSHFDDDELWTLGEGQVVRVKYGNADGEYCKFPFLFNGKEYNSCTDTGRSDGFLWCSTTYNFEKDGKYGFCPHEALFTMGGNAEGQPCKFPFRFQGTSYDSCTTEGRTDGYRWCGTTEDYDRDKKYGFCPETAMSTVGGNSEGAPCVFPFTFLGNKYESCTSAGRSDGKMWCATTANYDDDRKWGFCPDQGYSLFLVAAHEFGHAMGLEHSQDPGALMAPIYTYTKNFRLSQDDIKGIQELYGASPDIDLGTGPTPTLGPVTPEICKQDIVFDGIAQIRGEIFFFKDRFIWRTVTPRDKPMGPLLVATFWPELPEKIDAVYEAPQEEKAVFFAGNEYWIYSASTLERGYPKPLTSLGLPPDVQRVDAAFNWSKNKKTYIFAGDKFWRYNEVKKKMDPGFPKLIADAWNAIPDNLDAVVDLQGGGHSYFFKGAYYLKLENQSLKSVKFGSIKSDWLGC

Prothrombin = Prothrombin (Bos taurus, UniProt P00735); assay: thrombin inhibition, dose response, biochemical, fluorescence polarization, uHTS hits (AID 602369); assay type: functional
[5] = target: 26S proteasome non-ATPase regulatory subunit 14 (Homo sapiens, UniProt O00487); assay: inhibition of proteasome subunit RPN11 – biochemical, fluorescence polarization, uHTS hits, confirmation (AID 602368); assay type: functional
Chain of 26S proteasome non-ATPase regulatory subunit 14 (O00487 whole entry): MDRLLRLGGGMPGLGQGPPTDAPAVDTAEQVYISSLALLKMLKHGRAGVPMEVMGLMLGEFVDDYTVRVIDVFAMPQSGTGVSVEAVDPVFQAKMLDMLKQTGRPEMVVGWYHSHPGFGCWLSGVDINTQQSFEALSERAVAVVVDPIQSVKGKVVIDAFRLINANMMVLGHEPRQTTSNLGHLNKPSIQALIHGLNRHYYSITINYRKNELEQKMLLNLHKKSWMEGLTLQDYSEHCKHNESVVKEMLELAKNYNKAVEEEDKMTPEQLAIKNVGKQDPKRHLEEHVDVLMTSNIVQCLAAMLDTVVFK

Vero [6] = assay: cells; assay type: functional, cell-based; details: Chlorocebus sabaeus
Vero [7] = assay: cells; assay type: functional; details: Chlorocebus sabaeus
Escherichia coli [8] = assay: microbe, parasite or virus in culture
Mu-type opioid receptor = Mu-type opioid receptor (Homo sapiens, UniProt P35372); assay: (§1) Counterscreen for agonists of heterodimerization of the mu 1 (OPRM1) and delta 1 (OPRD1) opioid receptors: Luminescence-based cell-based high throughput dose response assay to identify agonists of OPRM1 homodimerization.; assay type: functional
Chain of Mu-type opioid receptor (P35372 whole entry): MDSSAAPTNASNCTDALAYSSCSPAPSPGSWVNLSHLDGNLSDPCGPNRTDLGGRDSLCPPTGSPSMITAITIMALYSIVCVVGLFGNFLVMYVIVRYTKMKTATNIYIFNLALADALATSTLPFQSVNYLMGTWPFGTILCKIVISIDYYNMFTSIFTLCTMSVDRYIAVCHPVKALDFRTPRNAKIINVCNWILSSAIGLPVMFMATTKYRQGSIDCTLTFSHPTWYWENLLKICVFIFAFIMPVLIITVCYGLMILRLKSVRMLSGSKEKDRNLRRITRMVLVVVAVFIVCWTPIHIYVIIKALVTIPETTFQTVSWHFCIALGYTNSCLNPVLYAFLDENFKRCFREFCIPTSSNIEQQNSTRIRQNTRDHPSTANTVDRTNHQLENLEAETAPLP

[9] = target: T1, DNA repair protein RAD52 homolog (Homo sapiens, UniProt P43351); assay type: functional, biochemical
T1 sequence (P43351 whole entry): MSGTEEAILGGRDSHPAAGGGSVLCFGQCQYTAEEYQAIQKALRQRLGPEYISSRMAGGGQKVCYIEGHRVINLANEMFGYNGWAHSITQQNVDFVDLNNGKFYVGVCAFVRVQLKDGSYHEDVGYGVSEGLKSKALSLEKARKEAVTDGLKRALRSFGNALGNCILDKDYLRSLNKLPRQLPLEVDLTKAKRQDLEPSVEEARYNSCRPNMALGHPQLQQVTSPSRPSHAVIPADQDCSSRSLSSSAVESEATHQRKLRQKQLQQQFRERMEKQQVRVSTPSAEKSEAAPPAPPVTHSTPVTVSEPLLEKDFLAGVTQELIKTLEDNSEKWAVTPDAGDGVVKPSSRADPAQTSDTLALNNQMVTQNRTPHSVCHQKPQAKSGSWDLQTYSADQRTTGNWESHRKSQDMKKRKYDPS

[10] = target: Delta-type opioid receptor (Homo sapiens, UniProt P41143); assay: as §1, with “of OPRD1” for “of OPRM1”, “homodimerization. [Related pubchem assays (depositor defined):AID504326, AID504355, AID504692, AID504904, AID504905]” for “homodimerization.”; assay type: functional
Chain of Delta-type opioid receptor (P41143 whole entry): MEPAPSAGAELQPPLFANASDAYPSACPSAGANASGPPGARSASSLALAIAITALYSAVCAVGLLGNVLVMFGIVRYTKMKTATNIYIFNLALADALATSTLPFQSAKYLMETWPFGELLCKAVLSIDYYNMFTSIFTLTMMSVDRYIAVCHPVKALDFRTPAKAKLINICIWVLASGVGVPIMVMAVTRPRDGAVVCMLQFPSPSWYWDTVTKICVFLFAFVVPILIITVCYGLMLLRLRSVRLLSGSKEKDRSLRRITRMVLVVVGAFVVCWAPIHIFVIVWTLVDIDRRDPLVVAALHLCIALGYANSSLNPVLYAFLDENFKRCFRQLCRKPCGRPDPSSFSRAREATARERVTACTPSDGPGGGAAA

[11] = target: 5-hydroxytryptamine receptor 5A (Homo sapiens, UniProt P47898); assay: Counterscreen for agonists of OPRM1-OPRD1 heterodimerization: luminescence-based cell-based high throughput dose response assay to identify agonists of 5-hydroxytryptamine (serotonin) 5A receptor (HTR5A). [Related pubchem assays (depositor defined):AID504326, AID504355, AID504692, AID504904, AID504905]; assay type: functional
Chain of 5-hydroxytryptamine receptor 5A (P47898 whole entry): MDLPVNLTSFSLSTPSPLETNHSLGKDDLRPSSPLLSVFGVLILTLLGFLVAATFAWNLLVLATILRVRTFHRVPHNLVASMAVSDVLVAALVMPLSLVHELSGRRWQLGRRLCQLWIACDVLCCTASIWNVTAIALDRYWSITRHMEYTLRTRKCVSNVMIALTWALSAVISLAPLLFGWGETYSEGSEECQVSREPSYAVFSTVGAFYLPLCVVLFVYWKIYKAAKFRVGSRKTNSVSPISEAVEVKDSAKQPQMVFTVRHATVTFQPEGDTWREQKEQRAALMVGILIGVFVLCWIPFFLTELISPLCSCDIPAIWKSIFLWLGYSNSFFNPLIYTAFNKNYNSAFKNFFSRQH

INS1 = assay: inhibitors of cytokine-induced nitrite release, dose response, cell-based, Griess absorbance, INS-1E, dry powder (AID 488866); assay type: functional; details: Rattus norvegicus
[12] = target: T2, Mannose-6-phosphate isomerase (Homo sapiens, UniProt P34949); assay: human PMI inhibitors, high substrate, primary screen, biochemical, fluorescence intensity, high mannose 6-phosphate (AID 1220)
T2 sequence (P34949 whole entry): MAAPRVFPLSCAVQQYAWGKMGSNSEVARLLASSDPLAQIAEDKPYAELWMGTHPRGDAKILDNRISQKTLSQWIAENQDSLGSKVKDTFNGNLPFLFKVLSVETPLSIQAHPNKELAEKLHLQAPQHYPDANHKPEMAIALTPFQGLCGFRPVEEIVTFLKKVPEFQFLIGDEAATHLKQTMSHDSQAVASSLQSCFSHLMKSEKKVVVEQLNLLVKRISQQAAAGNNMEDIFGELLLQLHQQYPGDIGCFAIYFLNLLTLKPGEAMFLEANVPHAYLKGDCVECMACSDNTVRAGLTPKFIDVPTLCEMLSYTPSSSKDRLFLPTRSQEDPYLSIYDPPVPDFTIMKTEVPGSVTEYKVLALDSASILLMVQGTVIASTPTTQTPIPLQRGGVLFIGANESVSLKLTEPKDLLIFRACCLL

[13] = target: T3, High affinity choline transporter 1 (Homo sapiens, UniProt Q9GZV3); assay: CHT inhibitors, dose response, cell-based, 5-point CRC, membrane potential dye (AID 504840); assay type: functional
T3 sequence (Q9GZV3 whole entry): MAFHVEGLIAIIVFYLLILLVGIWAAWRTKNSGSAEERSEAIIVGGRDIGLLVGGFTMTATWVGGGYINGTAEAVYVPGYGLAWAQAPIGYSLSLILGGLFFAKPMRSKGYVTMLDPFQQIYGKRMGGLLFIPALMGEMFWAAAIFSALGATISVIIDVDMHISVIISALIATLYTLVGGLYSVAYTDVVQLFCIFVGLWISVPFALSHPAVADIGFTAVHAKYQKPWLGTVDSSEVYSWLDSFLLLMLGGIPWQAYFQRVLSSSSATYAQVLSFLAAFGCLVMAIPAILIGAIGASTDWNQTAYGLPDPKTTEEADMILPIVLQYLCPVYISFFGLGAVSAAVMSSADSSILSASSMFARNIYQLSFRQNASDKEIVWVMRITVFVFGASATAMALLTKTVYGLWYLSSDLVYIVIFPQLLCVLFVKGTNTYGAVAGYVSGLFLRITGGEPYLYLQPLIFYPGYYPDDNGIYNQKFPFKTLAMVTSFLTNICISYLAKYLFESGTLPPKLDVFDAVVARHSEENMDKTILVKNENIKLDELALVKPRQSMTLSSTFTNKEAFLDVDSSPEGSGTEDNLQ

[14] = target: T4, Rac GTPase-activating protein 1 (Homo sapiens, UniProt Q9H0H5); assay: MgcRacGAP GTPase-activating activity inhibitors, confirmation, biochemical, ADP Hunter fluorescence, primary and confirmatory (AID 624330); assay type: functional
T4 sequence (Q9H0H5 whole entry): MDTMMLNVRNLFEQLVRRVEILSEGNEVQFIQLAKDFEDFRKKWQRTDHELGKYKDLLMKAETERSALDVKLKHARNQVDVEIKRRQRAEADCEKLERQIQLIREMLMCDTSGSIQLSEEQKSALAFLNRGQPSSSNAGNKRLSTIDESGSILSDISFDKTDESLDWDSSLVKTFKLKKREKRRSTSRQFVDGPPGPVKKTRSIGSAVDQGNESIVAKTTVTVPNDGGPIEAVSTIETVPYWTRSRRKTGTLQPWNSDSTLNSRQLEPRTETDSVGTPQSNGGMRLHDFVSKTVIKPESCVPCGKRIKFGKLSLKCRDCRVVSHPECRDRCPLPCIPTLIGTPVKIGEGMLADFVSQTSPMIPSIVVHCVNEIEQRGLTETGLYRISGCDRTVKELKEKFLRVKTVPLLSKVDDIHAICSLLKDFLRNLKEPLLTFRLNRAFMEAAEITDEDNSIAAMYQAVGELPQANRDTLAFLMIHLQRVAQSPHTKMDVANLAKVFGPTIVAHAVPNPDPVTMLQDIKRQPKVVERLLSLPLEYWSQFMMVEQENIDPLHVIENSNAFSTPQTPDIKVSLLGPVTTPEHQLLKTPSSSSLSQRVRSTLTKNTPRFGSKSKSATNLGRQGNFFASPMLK

Escherichia coli [15] = assay: microbe, parasite or virus in culture; remark: listed apart in the source
[16] = target: Induced myeloid leukemia cell differentiation protein Mcl-1 (Homo sapiens, UniProt Q07820); assay type: functional
Chain of Induced myeloid leukemia cell differentiation protein Mcl-1 (Q07820 whole entry): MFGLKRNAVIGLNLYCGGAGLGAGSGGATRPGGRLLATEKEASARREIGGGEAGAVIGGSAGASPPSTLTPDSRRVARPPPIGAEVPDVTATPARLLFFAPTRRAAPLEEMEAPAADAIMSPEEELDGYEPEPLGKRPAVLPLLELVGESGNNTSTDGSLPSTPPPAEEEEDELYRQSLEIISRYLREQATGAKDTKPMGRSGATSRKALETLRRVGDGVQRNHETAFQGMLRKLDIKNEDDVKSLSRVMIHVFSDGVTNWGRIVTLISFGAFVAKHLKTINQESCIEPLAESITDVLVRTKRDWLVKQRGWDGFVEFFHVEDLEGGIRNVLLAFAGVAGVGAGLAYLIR

In the case of `O=C(/C=C/c1ccc(O)c(O)c1)OCCc1ccccc1` [CAFFEIC ACID PHENETHYL ESTER], the AC50 [1] is reported as 0.877 µM (active), the AC50 [2] is reported as 1.11 µM (active) and the AC50 (Cytochrome P450 3A4) is reported as 31.6 µM (inconclusive). The AC50 [3] was > 70 µM (inactive).
With `O=C(Nc1cccnc1)c1cccc(-c2cc3ccccc3oc2=O)c1` the IC50 [4] was > 100 µM (inactive), the IC50 (Prothrombin) was 53.8 µM (active) and the IC50 [5] was 9.88 µM (active).
With `Cc1sc2nc(CSc3nnc(Cc4cccs4)n3C3CCCCC3)[nH]c(=O)c2c1C` the IC50 [4] was > 100 µM (inactive), the IC50 (Prothrombin) was 21.5 µM (active) and the IC50 [5] was 15.5 µM (active).
In the case of `CCC(C)C1NC(=O)C2CCCN2C(=O)C(CC(C)C)OC(=O)CCNC(=O)C(C)N(C)C(=O)C(C(C)C)N(C)C1=O` (configuration not stated) (cyclo([ξLac(3-iPr)]PI[NMeV][NMeA][βAla]); configuration not given here), the IC50 (Vero [6]) is reported as 8.21 µM (active) and the CC50 (Vero [7]) is reported as > 25 µM (active).
In the case of `Cc1ccc(C(=O)COC(=O)c2cc(O)nc3ccccc23)cc1C`, the IC50 [4] is reported as > 100 µM (inactive), the IC50 (Prothrombin) is reported as > 100 µM (inactive) and the IC50 [5] is reported as 22.3 µM (active).
With `O=C1CCCC2=C1CC(C(=O)OCc1ccccc1)C(=O)N2Cc1ccccc1` (configuration not stated) the AC50 (Escherichia coli [8]) was 13.8 µM (active).
With `CC(=O)C1CCC2C3CC=C4CC(SC(=N)N)CCC4(C)C3CCC12C` (configuration not stated) the EC50 (Mu-type opioid receptor) was > 92.4 µM (inactive), the AC50 [9] was 7.48 µM (active) and the EC50 [10] was > 10.3 µM (inactive). The EC50 [11] was > 92.4 µM (inactive).
In the case of `C[C@@H]1CN([C@@H](C)CO)C(=O)c2cccc(NC(=O)Nc3cccc4ccccc34)c2O[C@H]1CN(C)S(=O)(=O)c1ccc(-c2ccccc2)cc1`, the AC50 (INS1) is reported as > 195 µM (inactive).
For `CCN(CC)S(=O)(=O)c1cc(NC(=O)C2CCN(c3ncnc4sc(C)c(C)c34)CC2)ccc1Cl`, the AC50 [1] was 5.08 µM (active), the AC50 [2] was 10.6 µM (active) and the AC50 [3] was 7.1 µM (active).
With `COc1cccc(CNc2ccc(N3CCCCC3)cc2)c1OC` the IC50 [12] was > 50 µM (not active), the IC50 [13] was 11.5 µM (active) and the IC50 [14] was 5.96 µM (active).
For `Cc1ccc(-n2nnnc2-c2cnoc2-c2cccc(F)c2)cc1`, the AC50 (Escherichia coli [8]) was 126 µM (active) and the AC50 (Escherichia coli [15]) was 24.5 µM (active).
In the case of `CCOc1cccc2sc(N(CCCN(C)C)C(=O)c3ccc(S(=O)(=O)N4CCCCCC4)cc3)nc12`, the AC50 (Escherichia coli [8]) is reported as > 380 µM (inactive) and the AC50 (Escherichia coli [15]) is reported as 19.6 µM (active).
For `CCN=c1ccc(Br)cc(C(=O)/C=C/c2ccc(Cl)cc2Cl)c1O`, the IC50 (Vero [6]) was 11.6 µM (active), the CC50 (Vero [7]) was 11.1 µM (active) and the IC50 [16] was 3.71 µM (active).
In the case of `COc1ccc(S(=O)(=O)N(C)C[C@@H]2Oc3c(NC(=O)Nc4cccc(C(F)(F)F)c4)cccc3C(=O)N([C@@H](C)CO)C[C@H]2C)cc1`, the AC50 (INS1) is reported as 134 µM (active).
With `COc1ccccc1C1N(c2ccc(Cl)cc2)C(=O)C2CCCN21` (configuration not stated) the IC50 (Vero [6]) was > 25 µM (active).
With `CCN=C(S)NCCN1CCOCC1` the AC50 (Escherichia coli [15]) was 24.7 µM (active).
